Experimental data from ChEMBL document CHEMBL3525917, “Species difference in the mechanism of nonlinear pharmacokinetics of E2074, a novel sodium channel inhibitor, in rats, dogs, and monkeys” (Drug Metab Dispos, 2013).

Biological target: MDR1A (P-glycoprotein, ABCB1) (Mus musculus, UniProt P21447)
Test: Activity of mouse MDR1A expressed in pig LLC-PK1 cells assessed as efflux ratio of permeability from basolateral to apical side to apical to basolateral side at 1 uM after 2 hrs
Assay type: ADME, cell-based

Sequence of MDR1A (P-glycoprotein, ABCB1) (P21447 whole entry): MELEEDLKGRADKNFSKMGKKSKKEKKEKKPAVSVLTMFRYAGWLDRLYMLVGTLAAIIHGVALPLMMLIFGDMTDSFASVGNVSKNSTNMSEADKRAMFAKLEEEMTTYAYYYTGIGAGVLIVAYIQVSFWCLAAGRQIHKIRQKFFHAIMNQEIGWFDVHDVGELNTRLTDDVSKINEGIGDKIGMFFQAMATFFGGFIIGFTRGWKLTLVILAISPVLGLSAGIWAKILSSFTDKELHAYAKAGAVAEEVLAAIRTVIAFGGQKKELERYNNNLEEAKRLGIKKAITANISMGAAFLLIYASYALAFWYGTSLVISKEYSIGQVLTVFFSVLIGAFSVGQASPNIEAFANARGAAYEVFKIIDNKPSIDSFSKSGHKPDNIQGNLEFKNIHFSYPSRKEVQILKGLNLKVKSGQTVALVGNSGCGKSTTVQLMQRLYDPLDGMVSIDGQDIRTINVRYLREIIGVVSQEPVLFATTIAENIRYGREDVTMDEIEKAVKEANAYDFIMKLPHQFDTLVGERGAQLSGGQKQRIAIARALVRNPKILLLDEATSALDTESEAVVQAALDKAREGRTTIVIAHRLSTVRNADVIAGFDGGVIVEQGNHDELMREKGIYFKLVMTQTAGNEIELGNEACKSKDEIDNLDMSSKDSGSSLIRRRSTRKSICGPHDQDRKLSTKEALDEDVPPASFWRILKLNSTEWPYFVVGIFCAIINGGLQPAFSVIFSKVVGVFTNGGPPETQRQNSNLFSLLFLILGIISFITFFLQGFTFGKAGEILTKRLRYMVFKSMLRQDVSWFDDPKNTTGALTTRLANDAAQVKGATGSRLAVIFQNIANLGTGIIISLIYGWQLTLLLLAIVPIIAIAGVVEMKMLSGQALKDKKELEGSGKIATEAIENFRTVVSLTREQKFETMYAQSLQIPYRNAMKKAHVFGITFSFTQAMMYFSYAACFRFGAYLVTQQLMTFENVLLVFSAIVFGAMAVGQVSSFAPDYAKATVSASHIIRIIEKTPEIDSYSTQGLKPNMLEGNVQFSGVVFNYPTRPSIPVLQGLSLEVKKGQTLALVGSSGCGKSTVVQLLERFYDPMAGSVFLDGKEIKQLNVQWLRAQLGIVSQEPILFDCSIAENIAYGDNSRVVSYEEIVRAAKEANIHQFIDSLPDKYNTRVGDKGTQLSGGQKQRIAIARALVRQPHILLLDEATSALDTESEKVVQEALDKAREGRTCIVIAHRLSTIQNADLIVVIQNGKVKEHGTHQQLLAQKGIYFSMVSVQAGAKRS

CN(C)C(=O)C(CCN1CCC(O)(c2ccc(Cl)cc2)CC1)(c1ccccc1)c1ccccc1.Cl [LOPERAMIDE HYDROCHLORIDE]
efflux ratio at 2 h, 1 µM: 9
